# According to patent EP4782445A1, “CDK KINASE INHIBITOR AND USE THEREOF” (Abbisko Therapeutics Co., Ltd., priority 2023, dated 2025):
# How the values were obtained:
# CDK4/cyclin D3 = biological target: T1, CDK4/cyclin D3 (Homo sapiens, UniProt P11802); experiment: In vitro biochemical kinase activity assay for CDK4/cyclin D3 (HTRF); settings: unmarked data: 80 µM ATP in Step 1
# T1 construct: purchased Carna
# Method in brief: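 HTRF kinase reaction: 4.9 nM CDK4/cyclin D3, 1 mM (or 80 µM) ATP and 0.3 µM Rb-biotin substrate, 90 min at 30°C in buffer with 50 mM MgCl2 and 1 mM DTT.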
# CDK2/cyclin E1 = biological target: T2, CDK2/cyclin E1 (Homo sapiens, UniProt P24941); experiment: In vitro biochemical kinase activity assay for CDK2/cyclin E1 (HTRF); settings: 1 µM ATP
# T2 construct: purchased Carna
# Description: I. In Vitro Biochemical Kinase Activity Assay for CDK2/Cyclin E1
# The inhibitory effects of the compounds of the present invention on CDK2/cyclin E1 kinase activity were determined using a homogeneous time-resolved fluorescence (HTRF) assay. The experimental process was as follows: • 1. The kinase reaction was carried out in a 384-well plate. 15 nM CDK2/cyclin E1 kinase (Carna), 1 µM ATP, and 1 µM biotin-labeled substrate protein ATF2-biotin (Cisbio) were incubated at room temperature for 90 min in a buffer system composed of 10 mM MgCl2, 1 mM MnCl2, 1 mM DTT, and basal kinase buffer (Cisbio). • 2. The detection solution (Cisbio, containing reagents that specifically recognize phosphorylated ATF2 and ATF2-biotin proteins, respectively) was added. The plate was then sealed with a film (to protect from light and volatilization) and incubated at 25°C for 60 min. • 3. The plate was transferred to an Envision plate reader to detect fluorescence resonance energy transfer (FRET) signals. (The 665/615 ratio was calculated by reading the emission at 665 nm and 615 nM, respectively.) • 4. The IC50 values were determined by analyzing the inhibition at varying compound concentrations using Model 205 in the XLfit software.
# CDK6/cyclin D3 = biological target: T3, CDK6/cyclin D3 (Homo sapiens, UniProt Q00534); experiment: In vitro biochemical kinase activity assay for CDK6/cyclin D3 (HTRF); settings: unmarked data: 100 µM ATP in Step 1
# T3 construct: purchased Carna
# T3 sequence (Q00534 whole entry): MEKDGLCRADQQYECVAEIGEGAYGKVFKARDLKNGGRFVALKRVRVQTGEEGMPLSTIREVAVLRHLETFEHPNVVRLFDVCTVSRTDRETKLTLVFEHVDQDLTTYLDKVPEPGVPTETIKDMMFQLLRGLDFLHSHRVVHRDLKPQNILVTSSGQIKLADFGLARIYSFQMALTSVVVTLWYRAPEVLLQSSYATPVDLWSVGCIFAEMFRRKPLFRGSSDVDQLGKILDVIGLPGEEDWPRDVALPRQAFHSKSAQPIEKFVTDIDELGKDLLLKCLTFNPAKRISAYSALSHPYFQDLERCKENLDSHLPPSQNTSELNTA
# T3 sequence (P30281 whole entry partner): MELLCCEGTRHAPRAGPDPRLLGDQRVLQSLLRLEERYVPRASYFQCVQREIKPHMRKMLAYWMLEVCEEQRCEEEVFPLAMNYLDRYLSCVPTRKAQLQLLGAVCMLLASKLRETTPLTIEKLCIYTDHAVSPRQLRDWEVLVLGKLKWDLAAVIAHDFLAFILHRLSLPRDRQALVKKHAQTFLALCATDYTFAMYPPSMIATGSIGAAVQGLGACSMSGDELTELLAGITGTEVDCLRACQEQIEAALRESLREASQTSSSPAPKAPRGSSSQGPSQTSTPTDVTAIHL
# Method in brief: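 HTRF assay: 0.02 nM CDK6/cyclin D3 incubated with 1 mM (or 100 µM) ATP and 0.3 µM Rb-biotin substrate at 30°C for 60 min in kinase buffer with 5 mM MgCl2 and 1 mM DTT.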
# T1 sequence (P11802 whole entry): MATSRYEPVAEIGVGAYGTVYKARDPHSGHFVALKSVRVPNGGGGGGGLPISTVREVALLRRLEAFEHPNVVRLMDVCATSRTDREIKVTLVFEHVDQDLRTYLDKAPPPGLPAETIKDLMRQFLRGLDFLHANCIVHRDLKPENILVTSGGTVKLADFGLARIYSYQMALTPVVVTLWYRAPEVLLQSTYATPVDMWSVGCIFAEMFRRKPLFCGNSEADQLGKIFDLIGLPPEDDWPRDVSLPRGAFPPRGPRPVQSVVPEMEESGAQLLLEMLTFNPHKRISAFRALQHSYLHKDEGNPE
# T1 sequence (P30281 whole entry partner): as the sequence (P30281 whole entry partner) above
Compound,IC50 (CDK4/cyclin D3) [nM],IC50 (CDK2/cyclin E1) [nM],IC50 (CDK6/cyclin D3) [nM]
"CC(C)n1c(C#Cc2nc(Nc3ccc(C4CCN(C)CC4)cn3)ncc2Cl)cnc1C(C)(C)O [Example 55, 2-(5-((5-chloro-2-((5-(1-methylpiperidin-4-yl)pyridin-2-yl)amino)pyrimidin-4-yl)ethynyl)-1-isopropyl-1H-imidazol-2-yl)propan-2-ol]",0.33,2120,1.9
"CC(C)c1c(C#Cc2nc(Nc3ccc(C4CCN(C)CC4)cn3)ncc2Cl)cnn1C [Example 57, 5-chloro-4-((5-isopropyl-1-methyl-1H-pyrazol-4-yl)ethynyl)-N-(5-(1-methylpiperidin-4-yl)pyridin-2-yl)pyrimidin-2-amine]",0.68,2830,3.7
"CCN1CC2(C1)CN(c1ccc(Nc3ncc(F)c(C#Cc4cnn(C)c4C(C)C)n3)nc1)C2 [Example 61, N-(5-(6-ethyl-2,6-diazaspiro[3.3]heptan-2-yl)pyridin-2-yl)-5-fluoro-4-((5-isopropyl-1-methyl-1H-pyrazol-4-yl)ethynyl)pyrimidin-2-amine]",0.94,617,8.46
"CC(C)n1c(C#Cc2cc(N[C@@H]3CCOC[C@H]3O)ncc2Cl)cnc1CN1CCC[C@H](O)C1 [Example 109, (S)-1-((5-((5-chloro-2-(((3 S,4R)-3-hydroxytetrahydro-2H-pyran-4-yl)amino)pyridin-4-yl)ethynyl)-1-isopropyl-1H-imidazol-2-yl)methyl)piperidin-3-ol]",4.5,3190,223

# More lines, in order of falling IC50 (CDK4/cyclin D3), values ahead:
IC50 (CDK4/cyclin D3) [nM],IC50 (CDK2/cyclin E1) [nM],IC50 (CDK6/cyclin D3) [nM],Compound
23.8,693,130,"CC(C)n1c(C#Cc2nc(N[C@@H]3CCOC[C@H]3O)ncc2Cl)cnc1CN(C)C [Example 63, (3 S,4R)-4-((5-chloro-4-((2-((dimethylamino)methyl)-1-isopropyl-1H-imidazol-5-yl)ethynyl)pyrimidin-2-yl)amino)tetrahydro-2H-pyran-3-ol]"
3.07,1370,49,"CC(C)c1c(C#Cc2nc(N[C@@H]3CCOC[C@H]3O)ncc2Cl)cnn1C [Example 56, (3 S,4R)-4-((5-chloro-4-((5-isopropyl-1-methyl-1H-pyrazol-4-yl)ethynyl)pyrimidin-2-yl)amino)tetrahydro-2H-pyran-3-ol]"
0.36,129,4.86,"CCN1CC2(C1)CN(c1ccc(Nc3ncc(Cl)c(C#Cc4cnn(C)c4C(C)C)n3)nc1)C2 [Example 62, 5-chloro-N-(5-(6-ethyl-2,6-diazaspiro[3.3]heptan-2-yl)pyridin-2-yl)-4-((5-isopropyl-1-methyl-1H-pyrazol-4-yl)ethynyl)pyrimidin-2-amine]"
